The test relates to up-regulation of ICAM-1 (CD54) by IFNγ in U937 human monocytic cells. Put plainly: U937 IFNγ ICAM1 FACS Assay. The class given is cell-based. The settings on record: U937 cells stimulated with IFNγ; ICAM-1 expression by FACS; read-out: IC50, Example 44. The procedure, abridged: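 U937 cells in 10% FCS RPMI were preincubated 30 min at 37 °C with an 8-point, 3-fold compound dilution series in duplicate, then stimulated with IFNγ for 18–24 h. Surface ICAM-1 was stained with APC anti-ICAM-1 and read by flow cytometry as geometric mean on live-gated cells. EC50 was derived.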
“5-Fluoro-N4-[4-(3-methyl-1,2,4-oxadiazol-3-yl)methyleneoxyphenyl]-N2-[(3-N-propanamido)sulfonylphenyl)]-2,4-pyrimidinediamine [Compound I-262]”: the IC50 (usually the point on the concentration scale where inhibition reaches its midpoint) turned out to be 1040 nM.
The result for `Cc1ccc(Nc2ncc(F)c(Nc3cccc(OC4CCCN(C)C4)c3)n2)cc1S(N)(=O)=O` (racemic) [II-1, Racemic N2-(3-aminosulfonyl-4-methylphenyl)-5-fluoro-N4-{3-[(1-methylpiperidin-3-yl)oxy]phenyl}-2,4-pyrimidinediamine] reads 8330 nM.
For `Cc1ccc(Nc2ncc(F)c(Nc3ccc(OC4CCCN(C)C4)c(Cl)c3)n2)cc1S(N)(=O)=O` (racemic) [II-3, Racemic N2-(3-aminosulfonyl-4-methylphenyl)-N4-{3-chloro-4-[(1-methylpiperidin-3-yl)oxy]phenyl}-5-fluoro-2,4-pyrimidinediamine] the value was 6500 nM; for `Cc1ccc(Nc2ncc(F)c(Nc3ccc(OC4CCCN(C)C4)cc3)n2)cc1S(N)(=O)=O` (racemic) [II-4, Racemic N2-(3-aminosulfonyl-4-methylphenyl)-5-fluoro-N4-{4-[(1-methylpiperidin-3-yl)oxy]phenyl}-2,4-pyrimidinediamine], 3510 nM.
Take `N#CCOc1ccc(Nc2nc(Nc3cccc(S(N)(=O)=O)c3)ncc2F)cc1` [Compound I-17, N2-(3-Aminosulfonyl)phenyl-N4-(4-cyanomethoxy)phenyl-5-fluoro-2,4-pyrimidinediamine]: the IC50 stood at 365 nM.
The result for `CN1CCN(S(=O)(=O)c2cccc(Nc3ncc(F)c(Nc4ccc(OCC#N)cc4)n3)c2)CC1` [Compound I-19, N4-(4-Cyanomethoxy)phenyl-5-fluoro-N2-[3-(4-methylpiperazin-1-yl)sulfonyl]phenyl-2,4-pyrimidinediamine] reads 10100 nM; that for `Cc1ccc(Nc2ncc(F)c(Nc3ccc(OCC#N)cc3)n2)cc1S(N)(=O)=O` [Compound I-20, N2-(3-Aminosulfonyl-4-methyl)phenyl-N4-(4-cyanomethoxy)phenyl-5-fluoro-2,4-pyrimidinediamine], 339 nM.
The result for `N#CCOc1ccc(Nc2nc(Nc3ccc(Cl)c(S(N)(=O)=O)c3)ncc2F)cc1` [Compound I-21, N2-(3-Aminosulfonyl-4-chlorophenyl)-N4-(4-cyanomethoxy)phenyl-5-fluoro-2,4-pyrimidinediamine] reads 822 nM; that for `Cc1cc(Nc2nc(Nc3ccc(S(N)(=O)=O)cc3)ncc2F)ccc1OCC#N` [Compound I-22, N2-(4-Aminosulfonyl)phenyl-N4-(4-cyanomethoxy-3-methyl)phenyl-5-fluoro-2,4-pyrimidinediamine], 4430 nM; that for `Cc1cc(Nc2nc(Nc3cccc(S(N)(=O)=O)c3)ncc2F)ccc1OCC#N` [Compound I-23, N2-(3-Aminosulfonyl)phenyl-N4-(4-cyanomethoxy-3-methyl)phenyl-5-fluoro-2,4-pyrimidinediamine], 455 nM.
With `Cc1cc(Nc2nc(Nc3ccc(C)c(S(N)(=O)=O)c3)ncc2F)ccc1OCC#N` [Compound I-24, N2-(3-Aminosulfonyl-4-methyl)phenyl-N4-(4-cyanomethoxy-3-methyl)phenyl-5-fluoro-2,4-pyrimidinediamine], the IC50 stood at 1040 nM.
For `Cc1cc(Nc2nc(Nc3cccc(S(N)(=O)=O)c3)ncc2F)cc(C)c1OCC#N` [Compound I-26, N2-(3-Aminosulfonyl)phenyl-N4-(4-cyanomethoxy-3,5-dimethyl)phenyl-5-fluoro-2,4-pyrimidinediamine] the value was 424 nM; for `Cc1ccc(Nc2ncc(F)c(Nc3cc(C)c(OCC#N)c(C)c3)n2)cc1S(N)(=O)=O` [Compound I-27, N2-(3-Aminosulfonyl-4-methyl)phenyl-N4-(4-cyanomethoxy-3,5-dimethyl)phenyl-5-fluoro-2,4-pyrimidinediamine], 534 nM; for `COc1cc(Nc2ncc(F)c(Nc3ccc(OCC#N)cc3)n2)ccc1S(N)(=O)=O` [Compound I-28, N2-(4-Aminosulfonyl-3-methoxyphenyl)-N4-(4-cyanomethoxy)phenyl-5-fluoro-2,4-pyrimidinediamine], 1890 nM.
The result for `COc1cc(Nc2ncc(F)c(Nc3cc(C)c(OCC#N)c(C)c3)n2)ccc1S(N)(=O)=O` [Compound I-32, N2-(4-Aminosulfonyl-3-methoxy)phenyl-N4-(4-cyanomethoxy-3,5-dimethyl)phenyl-5-fluoro-2,4-pyrimidinediamine] reads 1970 nM; that for `N#CCOc1ccc(Nc2nc(Nc3ccc(F)c(S(N)(=O)=O)c3)ncc2F)cc1` [Compound I-33, N2-(3-Aminosulfonyl-4-fluoro)phenyl-N4-(4-cyanomethoxy)phenyl-5-fluoro-2,4-pyrimidinediamine], 897 nM; that for `Cc1cc(COc2ccc(Nc3nc(Nc4cc(Cl)c(C)c(S(N)(=O)=O)c4)ncc3F)cc2C)no1` [Compound I-216, N2-(3-Aminosulfonyl-5-chloro-4-methylphenyl)-5-fluoro-N4-[3-methyl-4-(5-methylisoxazol-3-yl)methyleneoxyphenyl]-2,4-pyrimidinediamine], 1570 nM.
For `Cc1cc(COc2ccc(Nc3nc(Nc4cc(C)c(F)c(S(N)(=O)=O)c4)ncc3F)cc2)no1` [Compound I-217, N2-(3-Aminosulfonyl-4-fluoro-5-methylphenyl)-5-fluoro-N4-[4-(5-methylisoxazol-3-yl)methyleneoxyphenyl]-2,4-pyrimidinediamine], the IC50 amounted to 478 nM.
For the molecule `Cc1cc(COc2ccc(Nc3nc(Nc4cc(C)c(Cl)c(S(N)(=O)=O)c4)ncc3F)cc2)no1` [Compound I-218, N2-(3-Aminosulfonyl-4-chloro-5-methylphenyl)-5-fluoro-N4-[4-(5-methylisoxazol-3-yl)methyleneoxyphenyl]-2,4-pyrimidinediamine], the IC50 was determined as 434 nM.
Consider `Cc1cc(COc2ccc(Nc3nc(Nc4ccc(C)c(S(N)(=O)=O)c4)ncc3F)cc2)no1` [Compound I-219, N2-(3-Aminosulfonyl-4-methylphenyl)-5-fluoro-N4-[4-(5-methylisoxazol-3-yl)methyleneoxyphenyl]-2,4-pyrimidinediamine], for which the IC50 was found to be 588 nM.
On to `Cc1cc(COc2ccc(Nc3nc(Nc4ccc(C)c(S(N)(=O)=O)c4)ncc3F)cc2Cl)no1` [Compound I-221, N2-(3-Aminosulfonyl-4-methylphenyl)-N4-[3-chloro-4-(5-methylisoxazol-3-yl)methyleneoxyphenyl]-5-fluoro-2,4-pyrimidinediamine], for which the IC50 came out at 4440 nM.
The result for `Cc1cc(COc2ccc(Nc3nc(Nc4ccc(C)c(S(N)(=O)=O)c4)ncc3F)cc2F)no1` [Compound I-222, N2-(3-Aminosulfonyl-4-methylphenyl)-5-fluoro-N4-[3-fluoro-4-(5-methylisoxazol-3-yl)methyleneoxyphenyl]-2,4-pyrimidinediamine] reads 840 nM; that for `Cc1cc(COc2ccc(Nc3nc(Nc4cc(Cl)c(C)c(S(N)(=O)=O)c4)ncc3F)cc2F)no1` [Compound I-223, N2-(3-Aminosulfonyl-5-chloro-4-methylphenyl)-5-fluoro-N4-[3-fluoro-4-(5-methylisoxazol-3-yl)methyleneoxyphenyl]-2,4-pyrimidinediamine], 1210 nM.

Source of the values: patent US11827628B2, “Compositions and methods for inhibition of the JAK pathway” (Rigel Pharmaceuticals, Inc., priority 2005, dated 2023).
